Values quoted from earlier work, collected in patent US12516015B2 (AMALIVE LIMITED, priority 2009, dated 2026).

O=C(O)Cc1ccccc1 [phenyl acetic acid]
pKa: ~4.28
